Experimental findings from PMC9704104, “Towards safer anti-inflammatory therapy: synthesis of new thymol–pyrazole hybrids as dual COX-2/5-LOX inhibitors” (Journal of Enzyme Inhibition and Medicinal Chemistry, 2022) are described below.

For orientation: IC50 means the concentration that inhibits the measured activity by half. Read a high IC50 as weaker potency. As usually defined, the melting point is the temperature of the solid-liquid transition.

For data set [1], the system named is formalin-induced rat paw oedema. In words: Formalin-induced paw oedema test (acute inflammation model). The class given is in vivo. Conditions: for % inhibition of paw oedema compared with reference drugs (in words) / inhibition in vivo at 5 mg/kg: 4 h; for % inhibition of paw oedema compared with reference drugs (in words) / Volume of oedema (ml) 4h / inhibition in vivo at 5 mg/kg / Volume of oedema (ml) 0: 5 mg/kg orally; for % inhibition of paw oedema compared with reference drugs (in words): comparison with celecoxib or diclofenac sodium; for Volume of oedema (ml) 4h: 4 h after formalin; for Volume of oedema (ml) 4h / inhibition in vivo at 5 mg/kg / % Relative potency (4h) celecoxib / % Relative potency (4h) diclofenac / Volume of oedema (ml) 0: individual rats 1-3; for inhibition in vivo at 5 mg/kg: Rattus norvegicus, po, read-out: % Inhibition of oedema volume; for % Relative potency (4h) celecoxib, Mean ± SD / % Relative potency (4h) celecoxib: relative to % inhibition of celecoxib at 4 h; for % Relative potency (4h) celecoxib, Mean ± SD / % Relative potency (4h) diclofenac, Mean ± SD: group mean ± SD; for % Relative potency (4h) diclofenac, Mean ± SD / % Relative potency (4h) diclofenac: relative to % inhibition of diclofenac at 4 h. Here is the method: Animals Adult female albino rats weighing 150-250 g were used (Experimental Animal Centre in Alexandria University). All animals accessed to food and water ad libitum and were housed in 12 h dark/light cycle in a controlled condition at 23-250C. They were allowed to acclimatize for 1 week prior to experimentation. Procedures involving animals and their care were conducted in conformity with the Guide for the Care and Use of Laboratory Animals published by US National Institute of Health4 (NIH publication No. 83-23, revised) and following the ethical guidelines of Alexandria University on laboratory animals. In all tests, adequate considerations were adopted to reduce pain or discomfort of animals (Approved by AlexU-IACUC) 3. […]
Formalin-induced paw edema test (acute inflammation model):
A solution of freshly prepared formalin 5% was used as a phlogistic agent. A mark was made on the lateral malleolus of the rats’ paws delineating the injection sites. The initial volume of paw was measured by means of digital calibrated Vernier caliper .
After 45 minutes, 40 μl formalin were injected subcutaneously into the sub plantar tissue of the right hind paw of all groups under light ether anesthesia . An equal volume of saline was injected into the left hind paw and served as internal control for the degree of inflammation in the right hind paw. 5, 6 The volume of paw was measured in different treatment groups, 4 h following the formalin injection and the amount of increase in paw volume (edema volume) was calculated by subtracting the volumes before and 4 h after the injection of formalin. Edema was expressed as an increase in the volume of paw, and the percentage of edema inhibition (or percent protection against inflammation) for each rat and each group was calculated according to the following equation: […]
Where Vt is the mean volume of edema at specific time interval (4 h) and Vo is the mean volume of edema […]
Relative potency of the tested compounds was expressed as % inhibition of edema for the tested compounds

The test system of a further data set is gastric mucosa. In words: In vivo gastric ulcerogenic activity (gross examination of gastric mucosa). Conditions: fasted rats, 60 mg/kg orally, six hours after treatment, 60 mg/kg.
A further data set has as its system 5-LOX. In words: In vitro 5-LOX inhibitory assay (Abnova 5-LOX inhibitor screening assay kit). The class given is biochemical. The source says:
The newly synthesised compounds were screened for their ability to inhibit 5-LOX enzymes. […] (Page: S21, Supplementary file). […]
In vitro LOX inhibitory assay
Inhibitor Screening Assay Kit detects and measures the hydroperoxides produced in the lipoxygenation reaction using a purified LOX. The detection reaction is equally sensitive to hydroperoxides at various positions within the fatty acid and will work with fatty acids of any carbon length. It is thus a general detection method for 5-LOX and can be used to screen libraries of compounds for those which inhibit 5 -LOX enzymes.
1) Blank Wells- add 100 µL of assay buffer to at least two wells.
2) Positive Control Wells- Lipoxygenase (15-LO standard) add 90 µL 15-LO and 10 µL of assay buffer […]
3) 100% Initial Activity Wells- add 90 µL 15-LO and 10 µL of solvent (DMSO) (the same solvent to dissolve the inhibitor) to two wells. The 100% initial activity wells should result in approximately 10 […]
4) Inhibitor Wells- add 90 µL of sample and I10 µL of inhibitor to two wells.
5) Initiate the reaction by adding 10 µL of substrate (either arachidonic acid or linoleic acid) to all the wells. Place the 96-well plate on a shaker for at least five minutes.
6) Add 100 µL of chromogen to each well to stop enzyme catalysis and develop the reaction. Cover with a plate cover and place the 96-well plate on a shaker for at least five minutes.
7) Remove the cover and read the absorbance at 490-500 nm using a plate reader.
Inhibitors were dissolved in DMSO. The inhibitors were added to the assay in a final volume of 10 µL before initiating with substrate. Three concentrations were prepared (25, 50 and 100 µM) to determine the concentration produced 50% enzyme inhibition.
2) The absorbance of blank wells was subtracted from absorbance of the 100% Initial activity and the […]

In a further data set the target is T1, COX-1 (Ovis aries, UniProt P05979).
T1 construct: purchased Cayman chemicals 560131
T1 sequence (P05979 25-600): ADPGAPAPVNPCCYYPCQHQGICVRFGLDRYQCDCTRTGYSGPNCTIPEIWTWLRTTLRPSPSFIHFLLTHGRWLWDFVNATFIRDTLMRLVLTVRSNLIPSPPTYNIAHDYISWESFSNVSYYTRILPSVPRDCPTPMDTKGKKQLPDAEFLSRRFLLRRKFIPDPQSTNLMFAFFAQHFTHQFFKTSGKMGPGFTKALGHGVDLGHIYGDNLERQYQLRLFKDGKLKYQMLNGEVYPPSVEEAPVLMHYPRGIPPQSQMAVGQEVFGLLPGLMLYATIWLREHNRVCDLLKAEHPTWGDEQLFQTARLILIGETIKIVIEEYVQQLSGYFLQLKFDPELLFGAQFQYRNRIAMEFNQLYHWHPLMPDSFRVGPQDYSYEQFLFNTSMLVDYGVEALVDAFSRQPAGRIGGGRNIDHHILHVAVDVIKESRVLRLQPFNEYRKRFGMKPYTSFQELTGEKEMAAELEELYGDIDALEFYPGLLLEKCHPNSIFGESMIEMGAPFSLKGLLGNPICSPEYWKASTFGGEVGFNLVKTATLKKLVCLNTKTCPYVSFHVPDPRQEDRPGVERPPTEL
In words: In vitro COX-1 inhibitory assay (Cayman colorimetric COX (ovine) inhibitor screening assay kit). The format is biochemical. Conditions: mean of three replicates ± SD. Here is the method:
(Page: S20, Supplementary file).
Anti-inflammatory activity
In vitro COX-1 and COX-2 inhibitory assay […]
supplied by Cayman chemicals, Ann Arbor, MI, USA according to reported method 1. The colorimetric COX inhibitor screening assay utilizes the peroxidase component of cyclooxygenase. The peroxidase activity was assayed calorimetrically by monitoring the appearance of oxidized N,N,N',N'-tetramethyl-1,4-phenylenediamine (TMPD) at 590nm. The appearance of reagent was carried out following the instructions […]
The half- maximal inhibitor concentrations (IC50µM) were determined and the selectivity index (SI) values were calculated as IC50 (COX-1)/IC50 (COX-2).
1) Background wells- 160 µL of assay buffer and 10 µL of heme were added to background wells.
2) The 100% Initial activity wells- 150 µL of assay buffer, 10 µL of heme and 10 µL of enzyme (COX-1 or COX-2) were added.
3) Inhibitor well- 150 µL of assay buffer, 10 µL of heme and 10 µL of enzyme were added.
4) 10 µL of inhibitor (3 concentrations) in DMSO was added to the inhibitor wells to yield a final […]
5) 10 µL of solvent (DMSO) was added to the 100% Initial activity wells and background wells.
7) 20 µL of colorimetric substrate solution (TMPD) was added to all wells.
8) 20 µL of arachidonic acid was added to all wells to yield a final concentration of 100 µM.
10) The absorbance was measured at 590 nm using a plate reader.
The calculations were carried out in the following manner:
1) The average absorbance of all samples was determined.
2) The absorbance of background wells was subtracted from absorbance of the 100% Initial activity […]
3) Percent inhibition = (100% Initial activity – Inhibitor wells/ 100% Initial activity)∗ 100 […]
Place the 96-well plate on a shaker for at least five minutes. […]

Where “and” joins values, the source holds several entries; their conditions need not be identical. Identical values can stand only once. Entries after “also recorded” stand apart in the source; their conditions may differ.

Experimental for gastric mucosa: Compounds were evaluated for acute gastric ulcerogenic effect in adult female Wistar rats. Gross examination was performed for any evidence of hyperaemia, haemorrhage, definite haemorrhagic erosion, or ulcer according to reported procedures[49]^,[51]
Compounds were evaluated for acute gastric ulcerogenic effect in adult female Wistar rats. Rats (150–250 g)
were divided into groups of six rats each and test compounds, references or DMSO as control were
administered orally at a dose of 60 mg/kg body weight (three times the previously used dose). Six hours after
the treatment they were sacrificed under deep ether anesthesia and their stomachs were removed and opened
through greater curvature, washed under running water and fixed in saline solution. Gross examination was
performed for any evidence of hyperemia, hemorrhage, definite hemorrhagic erosion or ulcer 6, 7 (Approved
The degree of ulcerogenicity was determined by viewing the gastric epithelial ulceration using a 5x
magnifying lens and rated by ulcer score.
Ulcer score was used to grade the incidence and severity of the lesions such as:
1) Shedding of epithelium—10
2) Petechial and frank hemorrhages—20
4) More than two ulcers—40

On to `Cc1ccc(C(C)C)c(O)c1C=NNC(=O)c1cc(-c2ccccc2)n(-c2ccc(S(N)(=O)=O)cc2)n1` [Compound 8a, 4-(3-(2–(2-Hydroxy-3-isopropyl-6-methylbenzylidene)hydrazine-1-carbonyl)-5-phenyl-1H-pyrazol-1-yl)benzenesulfonamide], for which, in data set [1], the “% inhibition of paw oedema compared with reference drugs (in words)” value (from here on “% inhibition of paw oedema”) is “slightly less % inhibition than that of Diclofenac sodium”; the inhibition in vivo at 5 mg/kg worked out at 40.1%; the “% Relative potency (4h) celecoxib, Mean ± SD” value is given as 106.8 ± 12.02%; the “% Relative potency (4h) celecoxib” value is 114.10% and 92.90% and 113.30%. In data set [1], the “% Relative potency (4h) diclofenac, Mean ± SD” value is listed as 74.10 ± 9.64%; the “% Relative potency (4h) diclofenac” value was 84.80% and 66.10% and 71.40%. For the same compound, in data set [1] (5 mg/kg), the “Volume of oedema (ml) 4h” value stood at 6.35 mL and the “Volume of oedema (ml) 0” value was 5.02 mL. Further, in the data set on gastric mucosa, the “Gross appearance of gastric mucosa (ulcerogenic potential)” value (“Gross appearance of gastric mucosa” for short) is recorded as “variable degrees of hyperaemia; also recorded: Hyperemia without gross ulceration”. Besides, half-maximal inhibition in the data set with 5-LOX (IC50) required 1.96 ± 0.036 µM. Half-maximal inhibition against COX-1 (IC50) required 11.2 ± 0.15 µM.

For the compound `Cc1ccc(C(C)C)c(O)c1C=NNC(=O)c1cc(-c2ccc(Br)cc2)n(-c2ccc(S(N)(=O)=O)cc2)n1` [Compound 8b, 4-(5-(4-Bromophenyl)-3-(2-(2-hydroxy-3-isopropyl-6-methylbenzylidene)hydrazine-1-carbonyl)-1H-pyrazol-1-yl)benzene sulphonamide], in data set [1] (5 mg/kg), the “% inhibition of paw oedema” value is “nearly equal activity to celecoxib; also recorded: slightly less % inhibition than that of Diclofenac sodium” and the “Volume of oedema (ml) 0” value is 5.02 mL. In addition, in data set [1], the inhibition in vivo at 5 mg/kg came to 40.1%; the “% Relative potency (4h) celecoxib” value was 114.10% and 86.90% and 93.30%; the “% Relative potency (4h) diclofenac, Mean ± SD” value worked out at 68.50 ± 14.20%; the “% Relative potency (4h) diclofenac” value is 84.80% and 61.90% and 58.80%. In addition, the “Gross appearance of gastric mucosa” value in the data set on gastric mucosa is “No gross ulceration”. In addition, in the data set on 5-LOX, the IC50 was 1.58 ± 0.026 µM. At COX-1, this compound registered a concentration for half-maximal inhibition (IC50) of 13.61 ± 0.096 µM.

`COc1ccc(-c2cc(C(=O)NN=Cc3c(C)ccc(C(C)C)c3O)nn2-c2ccc(S(N)(=O)=O)cc2)cc1` [Compound 8c, 4-(3-(2-(2-Hydroxy-3-isopropyl-6-methylbenzylidene)hydrazine-1-carbonyl)-5-(4-methoxyphenyl)-1H-pyrazol-1-yl)benzenesulfonamide] showed a melting point of 245 to 247 °C. In addition, in data set [1] (5 mg/kg), the “Volume of oedema (ml) 4h” value turned out to be 5.80 mL. Also, in data set [1], the inhibition in vivo at 5 mg/kg came to 60.4%; the “% Relative potency (4h) celecoxib, Mean ± SD” value was found to be 170.0 ± 9.73%; the “% Relative potency (4h) celecoxib” value was 171.80% and 159.50% and 178.70%; the “% Relative potency (4h) diclofenac, Mean ± SD” value was 117.9 ± 8.39%. For the same compound, in data set [1], the “% Relative potency (4h) diclofenac” value is 127.60% and 113.60% and 112.60%. The IC50 in the data set with 5-LOX turned out to be 1.91 ± 0.053 µM. At COX-1, this compound gave an IC50 of 12.87 ± 0.097 µM.

For `Cc1ccc(C(C)C)c(O)c1C=NNC(=O)c1cc(-c2ccccc2)n(-c2ccc(Cl)cc2)n1` [Compound 8g, 1-(4-Chlorophenyl)-N'-(2-hydroxy-3-isopropyl-6-methylbenzylidene)-5-phenyl-1H-pyrazole-3-carbohydrazide], in data set [1], the inhibition in vivo at 5 mg/kg was 52.7%; the “% Relative potency (4h) celecoxib, Mean ± SD” value amounted to 148.6 ± 2.99%; the “% Relative potency (4h) celecoxib” value is 150.0% and 145.20% and 150.70%; the “% Relative potency (4h) diclofenac, Mean ± SD” value amounted to 103.3 ± 8.20%. The “% Relative potency (4h) diclofenac” value in data set [1] is 111.40% and 103.40% and 95.0%. The “Gross appearance of gastric mucosa” value in the data set with gastric mucosa is given as “No gross ulceration”. The compound further gave an IC50 in the data set on 5-LOX of 1.6 ± 0.042 µM. Half-maximal inhibition against COX-1 (IC50) required 12.1 ± 0.16 µM.

`Cc1ccc(C(C)C)c(O)c1C=NNC(=O)c1cc(-c2ccc(Br)cc2)n(-c2ccc(Cl)cc2)n1` [Compound 8h, 5-(4-Bromophenyl)-1-(4-chlorophenyl)-N'-(2-hydroxy-3-isopropyl-6-methylbenzylidene)-1H-pyrazole-3-carbohydrazide]: in data set [1], the “% inhibition of paw oedema” value is given as “slightly less % inhibition than that of Diclofenac sodium”; the inhibition in vivo at 5 mg/kg amounted to 53.6%; the “% Relative potency (4h) celecoxib, Mean ± SD” value worked out at 140.9 ± 20.93%; the “% Relative potency (4h) celecoxib” value was 152.60% and 116.70% and 153.30%. Further, in data set [1], the “% Relative potency (4h) diclofenac, Mean ± SD” value is given as 97.67 ± 15.13%; the “% Relative potency (4h) diclofenac” value was 113.30% and 83.10% and 96.60%. Besides, the “Volume of oedema (ml) 0” value in data set [1] (5 mg/kg) was determined as 5.02 mL. For the same compound, in the data set with gastric mucosa, the “Gross appearance of gastric mucosa” value was “variable degrees of hyperaemia; also recorded: Hyperemia without gross ulceration”. Also, in the data set with 5-LOX, the 50% inhibitory concentration (IC50) was 1.97 ± 0.026 µM. This compound also came in with an IC50 against COX-1 of 12.6 ± 1.36 µM.
